Molecules are shown by their SMILES.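 Five compound concentrations were applied to cells in 96-well plates for 48 hours; endpoints were derived by simple linear interpolation of the resulting dose-response curve. Abbreviation: GI50, concentration required for 50% inhibition of growth. The concentration for full growth arrest is given as TGI.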

Among the test systems are M19-MEL melanoma; HOP-18 NSCLC; KM20L2 colon; DLD-1 colon; SNB-78 CNS; DMS 273 small cell lung; RXF-631 renal; MDA-N.
What all share (test): NCI tumour cell line growth inhibition, 48 h

Take `CCOC(=O)N[C@@H]1C(CC(=O)OC)O[C@H]2OC(C)(C)O[C@H]21` (some centres not stated): the TGI in the test on M19-MEL melanoma, in the test with HOP-18 NSCLC, in the test on KM20L2 colon, with DLD-1 colon, with SNB-78 CNS and in the test with DMS 273 small cell lung was over 100 µM each time. The molecule also returned a TGI with RXF-631 renal of over 100 µM.

For the molecule `CCOC(=O)C1SC(=Nc2ccc(C)c(C)c2)N=C1C` (configuration not stated), the TGI in the test with M19-MEL melanoma, with HOP-18 NSCLC, with KM20L2 colon, with DLD-1 colon and in the test on DMS 273 small cell lung was over 100 µM each time.

Take `CC1=[N+]([O-])c2ccccc2C(=O)C1=O`: the TGI in the test on M19-MEL melanoma, in the test with HOP-18 NSCLC, in the test with KM20L2 colon, with DLD-1 colon, with SNB-78 CNS and with DMS 273 small cell lung was over 100 µM in each case.

Regarding `CC1=C(/C=C/Cl)CC(Cl)C(C)(Cl)C1` (configuration not stated), in the test with MDA-N, the TGI was over 100 µM.

For the molecule `COc1ccc(C2=C(Cl)c3cc(OC)c(OC)cc3C2Cl)cc1` (configuration not stated), the TGI in the test on M19-MEL melanoma was determined as 35.8 µM; with HOP-18 NSCLC it was 53.5 µM; with KM20L2 colon it was 30.5 µM; in the test with MDA-N it was 22.8 µM; with SNB-78 CNS, 49.3 µM; with DMS 273 small cell lung it was 39.5 µM.

Regarding `COC(=O)C(CC(=O)Nc1ccc(C)cc1)C(=O)C(=O)Nc1c(C(C)C)cccc1C(C)C` (configuration not stated), the TGI with M19-MEL melanoma, in the test on KM20L2 colon, with DLD-1 colon, in the test on SNB-78 CNS and with RXF-631 renal was over 100 µM each time.

Consider `CC(=O)O[C@H]1CCC2[C@@H]3CC[C@]4(C)CC(=O)C=C[C@]4(C)C3CC[C@@]21C` (some centres not stated), for which the TGI in the test with M19-MEL melanoma was 34.7 µM; in the test with HOP-18 NSCLC, over 53.7 µM; with KM20L2 colon, 43.5 µM; in the test on DLD-1 colon, 56.9 µM; in the test with MDA-N, 74.7 µM; in the test with SNB-78 CNS, 22.3 µM. Besides, the TGI in the test on DMS 273 small cell lung was 31.7 µM; with RXF-631 renal, over 100 µM.

Turning to `O=C1c2cccnc2-c2nc(-c3ccc(Cl)cc3)cc3c2c1nc1ccccc13`, in the test with MDA-N, the GI50 is 40 µM and the TGI is over 100 µM.

`COc1ccc2c3c([nH]c2c1[N+](=O)[O-])C(C)N(C)CC3` (configuration not stated): the TGI in the test on M19-MEL melanoma is over 100 µM; in the test on HOP-18 NSCLC, 84.9 µM; in the test on KM20L2 colon, over 100 µM; with DLD-1 colon, over 100 µM; with SNB-78 CNS, over 100 µM; with DMS 273 small cell lung, over 100 µM.

Molecule `CCc1nc(N)nc(N)c1-c1ccc(NC)c([N+](=O)[O-])c1` came in with a TGI in the test with MDA-N of over 100 µM.

In turn, `CN1CCc2nc(N)nc(-c3nc(N)nc4c3CN(C)CC4)c2C1` came in with a TGI with MDA-N of over 100 µM.

`[N-]=[N+]=C1C(=O)NN=C1c1ccccc1`: the TGI with M19-MEL melanoma, in the test on KM20L2 colon, in the test with DLD-1 colon, with DMS 273 small cell lung and in the test with RXF-631 renal was over 100 µM in each case.

For the molecule `O=C(c1cccc2ccccc12)N1CCC(C2CCN(C(=O)c3cccc4ccccc34)CC2)CC1`, the TGI in the test with M19-MEL melanoma, in the test on HOP-18 NSCLC, in the test with KM20L2 colon, in the test with DLD-1 colon, in the test on SNB-78 CNS and in the test on DMS 273 small cell lung was over 100 µM in each case. Further, the TGI in the test with RXF-631 renal is over 100 µM.

With `Cc1[nH]c(=O)nc2[nH][nH]c(=O)c12`, the TGI in the test on M19-MEL melanoma and in the test on HOP-18 NSCLC was over 100 µM each time.

For the molecule `COc1ccc(CN2CC(C)(C)C2=O)c(OC)c1`, the TGI in the test on M19-MEL melanoma, in the test with HOP-18 NSCLC, in the test on KM20L2 colon, with SNB-78 CNS, in the test on DMS 273 small cell lung and in the test on RXF-631 renal was over 100 µM in each case.

In the test on MDA-N, `OCC1OC(n2cnc3c2NC=NC[C@H]3O)C(Cl)C1O` (some centres not stated) yielded a TGI of over 100 µM.

As to `O=C(N/N=C/c1cc(Br)ccc1O)N/N=C/c1cc(Br)ccc1O`, the TGI with M19-MEL melanoma, with KM20L2 colon, in the test on DLD-1 colon, with DMS 273 small cell lung and in the test on RXF-631 renal was over 100 µM in each case.

For `Cc1nnc(NS(=O)(=O)c2ccc(N=Nc3cc(N=Nc4ccc(S(=O)(=O)Nc5nnc(C)s5)cc4)c4c(NC(=O)C(Cl)Cl)cccc4c3OC(=O)C(Cl)Cl)cc2)s1` (tested in a mixture with another compound), the TGI in the test on M19-MEL melanoma is 57.2 µM; in the test with KM20L2 colon, over 100 µM; in the test on DLD-1 colon it was 42.9 µM; in the test on SNB-78 CNS, over 100 µM; in the test with DMS 273 small cell lung, 39.8 µM; in the test on RXF-631 renal, over 100 µM.

Take `CN(C)CCC1(C2=CCCC2)CC/C(=C\c2ccc(Cl)cc2)C1=O` (configuration not stated): the TGI with M19-MEL melanoma was 13.3 µM; with HOP-18 NSCLC, 24.8 µM; in the test on KM20L2 colon it was 7.82 µM; in the test on DLD-1 colon, 20.6 µM; in the test with SNB-78 CNS, 26.9 µM; with DMS 273 small cell lung it was 24.8 µM. Moreover, the TGI with RXF-631 renal is 25.4 µM.

As to `O=C(O)CNS(=O)(=O)c1ccc(NC(=O)c2ccc([N+](=O)[O-])cc2)cc1`, the TGI in the test on M19-MEL melanoma, in the test with HOP-18 NSCLC, in the test on KM20L2 colon, in the test on DLD-1 colon, in the test with DMS 273 small cell lung and in the test on RXF-631 renal was over 100 µM each time.

Turning to `COc1ccc(-c2cc(-c3cc(C)cc(Br)c3O)no2)cc1`, the TGI in the test with MDA-N is over 100 µM.

Consider `O=C(CCc1nc(=S)[nH][nH]1)Nc1ccccc1Cl`, for which the TGI in the test on M19-MEL melanoma, in the test on HOP-18 NSCLC, with KM20L2 colon, in the test with DLD-1 colon, in the test with SNB-78 CNS and with DMS 273 small cell lung was over 100 µM each time.

`COc1ccc(C[N+](C)(C)N)cc1OC`: in the test on MDA-N, the GI50 was over 100 µM and the TGI is over 100 µM.

The values are drawn from PubChem BioAssay (NCI).
